Results reported in the NIST ThermoML archive (doi:10.1016/j.jct.2003.11.008).
Numbers after ± are expanded uncertainties.

What was measured:
[1] = 318.15 K; 101.33 kPa; Liquid; Vibrating tube method
[2] = refractive index (Na D-line) (dimensionless); conditions: 318.15 K; 101.33 kPa; Liquid; Standard Abbe refractometry
[3] = xn = mol fraction of the nth substance listed; conditions: 318.15 K, 101.3 kPa, Liquid
[4] = excess molar enthalpy (molar enthalpy of mixing); xn = mol fraction of the nth substance listed; conditions: 318.15 K, 101.3 kPa, Liquid

CCCCCOC(C)=O [pentyl ethanoate]
Conditions	mass density [kg/m3]	refractive index
[1]	852.93 ± 0.45	–
[2]	–	1.391 ± 0.0008

CCCCCCCCC [nonane]
Conditions	mass density [kg/m3]	refractive index
[1]	698.06 ± 0.4	–
[2]	–	1.3939 ± 0.0008

CCCCCCCCCCCCCCC [pentadecane]
Conditions	mass density [kg/m3]	refractive index
[1]	750.9 ± 0.78	–
[2]	–	1.4212 ± 0.0008

CCCCCCC [heptane]
Conditions	mass density [kg/m3]	refractive index
[1]	662.04 ± 0.27	–
[2]	–	1.3748 ± 0.0007

CCCCCCCCCCCCC [tridecane]
Conditions	mass density [kg/m3]	refractive index
[1]	738.34 ± 0.41	–
[2]	–	1.4155 ± 0.0008

CCCCOC(C)=O [butyl ethanoate]
Conditions	mass density [kg/m3]	refractive index
[1]	855.39 ± 0.17	–
[2]	–	1.3825 ± 0.0007

CCCCCCCCCCC [undecane]
Conditions	mass density [kg/m3]	refractive index
[1]	721.76 ± 0.41	–
[2]	–	1.4063 ± 0.0008

CCCOC(C)=O [propyl ethanoate]
Conditions	mass density [kg/m3]	refractive index
[1]	859.78 ± 0.88	–
[2]	–	1.3721 ± 0.0008

CCCCCCCCCCCCCCC [pentadecane] + CCCOC(C)=O
Conditions	excess molar enthalpy [kJ/mol]	excess molar volume [m3/mol]
[3], x2 = 0.0878	–	3.42e-07 ± 1.7e-08
[3], x2 = 0.1416	–	5.35e-07 ± 1.8e-08
[3], x2 = 0.2112	–	7.4e-07 ± 1.9e-08
[3], x2 = 0.3035	–	9.75e-07 ± 2e-08
[3], x2 = 0.3749	–	1.102e-06 ± 2.1e-08
[3], x2 = 0.4446	–	1.188e-06 ± 2.1e-08
[3], x2 = 0.5048	–	1.254e-06 ± 2.1e-08
[3], x2 = 0.5631	–	1.259e-06 ± 2.1e-08
[3], x2 = 0.6193	–	1.238e-06 ± 2.1e-08
[3], x2 = 0.6657	–	1.213e-06 ± 2.1e-08
[3], x2 = 0.742	–	1.093e-06 ± 2.1e-08
[3], x2 = 0.8073	–	9.36e-07 ± 2e-08
[3], x2 = 0.8769	–	6.9e-07 ± 1.9e-08
[3], x2 = 0.9297	–	4.51e-07 ± 1.8e-08
[3], x2 = 0.9673	–	2.26e-07 ± 1.7e-08
[4], x2 = 0.1056	0.572 ± 0.011	–
[4], x2 = 0.1903	0.961 ± 0.017	–
[4], x2 = 0.2687	1.27 ± 0.021	–
[4], x2 = 0.3385	1.48 ± 0.025	–
[4], x2 = 0.4042	1.63 ± 0.027	–
[4], x2 = 0.4596	1.71 ± 0.028	–
[4], x2 = 0.5101	1.76 ± 0.029	–
[4], x2 = 0.5521	1.76 ± 0.029	–
[4], x2 = 0.5935	1.74 ± 0.029	–
[4], x2 = 0.634	1.7 ± 0.028	–
[4], x2 = 0.674	1.63 ± 0.027	–
[4], x2 = 0.715	1.54 ± 0.025	–
[4], x2 = 0.7583	1.42 ± 0.024	–
[4], x2 = 0.8027	1.26 ± 0.021	–
[4], x2 = 0.8473	1.06 ± 0.018	–
[4], x2 = 0.8921	0.808 ± 0.014	–
[4], x2 = 0.9369	0.529 ± 0.0098	–
[4], x2 = 0.9732	0.246 ± 0.0056	–

CCOC(C)=O [ethyl acetate]
Conditions	mass density [kg/m3]	refractive index
[1]	869.54 ± 0.24	–
[2]	–	1.3597 ± 0.0007

COC(C)=O [methyl ethanoate]
Conditions	mass density [kg/m3]	refractive index
[1]	900.1 ± 0.24	–
[2]	–	1.349 ± 0.0007

CCCCCCCCCCCCCCCCC [heptadecane] + CCCCOC(C)=O
Conditions	excess molar enthalpy [kJ/mol]	excess molar volume [m3/mol]
[3], x2 = 0.0632	–	1.97e-07 ± 1.6e-08
[3], x2 = 0.104	–	3.47e-07 ± 1.7e-08
[3], x2 = 0.1206	–	3.85e-07 ± 1.7e-08
[3], x2 = 0.1949	–	5.9e-07 ± 1.8e-08
[3], x2 = 0.2755	–	7.8e-07 ± 1.9e-08
[3], x2 = 0.3444	–	9e-07 ± 2e-08
[3], x2 = 0.4115	–	9.79e-07 ± 2e-08
[3], x2 = 0.4696	–	1.048e-06 ± 2e-08
[3], x2 = 0.515	–	1.082e-06 ± 2.1e-08
[3], x2 = 0.5713	–	1.082e-06 ± 2.1e-08
[3], x2 = 0.6623	–	1.03e-06 ± 2e-08
[3], x2 = 0.7646	–	9.06e-07 ± 2e-08
[3], x2 = 0.842	–	6.95e-07 ± 1.9e-08
[3], x2 = 0.8976	–	5.2e-07 ± 1.8e-08
[3], x2 = 0.9384	–	3.47e-07 ± 1.7e-08
[3], x2 = 0.9717	–	1.79e-07 ± 1.6e-08
[4], x2 = 0.0954	0.462 ± 0.0088	–
[4], x2 = 0.1878	0.841 ± 0.015	–
[4], x2 = 0.2686	1.13 ± 0.019	–
[4], x2 = 0.3397	1.33 ± 0.022	–
[4], x2 = 0.4009	1.46 ± 0.024	–
[4], x2 = 0.4599	1.55 ± 0.026	–
[4], x2 = 0.5118	1.6 ± 0.026	–
[4], x2 = 0.5532	1.6 ± 0.026	–
[4], x2 = 0.5903	1.6 ± 0.026	–
[4], x2 = 0.5962	1.59 ± 0.026	–
[4], x2 = 0.6293	1.54 ± 0.025	–
[4], x2 = 0.6674	1.47 ± 0.024	–
[4], x2 = 0.7073	1.39 ± 0.023	–
[4], x2 = 0.7491	1.27 ± 0.021	–
[4], x2 = 0.7926	1.13 ± 0.019	–
[4], x2 = 0.8356	0.97 ± 0.017	–
[4], x2 = 0.8781	0.783 ± 0.014	–
[4], x2 = 0.9208	0.557 ± 0.01	–
[4], x2 = 0.9615	0.299 ± 0.0063	–

CCCCCCCCCCCCCCCCC [heptadecane]
Conditions	mass density [kg/m3]	refractive index
[1]	760.8 ± 0.79	–
[2]	–	1.4268 ± 0.0008

CCCCCCCCCCCCCCC [pentadecane] + COC(C)=O
Conditions	excess molar enthalpy [kJ/mol]	excess molar volume [m3/mol]
[3], x2 = 0.1527	–	8.72e-07 ± 3.9e-08
[3], x2 = 0.2889	–	1.467e-06 ± 4.5e-08
[3], x2 = 0.3786	–	1.739e-06 ± 4.7e-08
[3], x2 = 0.4627	–	1.898e-06 ± 4.9e-08
[3], x2 = 0.5368	–	1.979e-06 ± 4.9e-08
[3], x2 = 0.5993	–	2.002e-06 ± 5e-08
[3], x2 = 0.6511	–	1.945e-06 ± 4.9e-08
[3], x2 = 0.6955	–	1.858e-06 ± 4.8e-08
[3], x2 = 0.7356	–	1.746e-06 ± 4.7e-08
[3], x2 = 0.777	–	1.644e-06 ± 4.6e-08
[3], x2 = 0.8099	–	1.512e-06 ± 4.5e-08
[3], x2 = 0.8412	–	1.386e-06 ± 4.4e-08
[3], x2 = 0.8595	–	1.259e-06 ± 4.3e-08
[3], x2 = 0.9126	–	9.19e-07 ± 4e-08
[3], x2 = 0.9511	–	5.84e-07 ± 3.6e-08
[3], x2 = 0.9777	–	2.73e-07 ± 3.4e-08
[4], x2 = 0.091	0.587 ± 0.011	–
[4], x2 = 0.1824	1.14 ± 0.019	–
[4], x2 = 0.2689	1.64 ± 0.027	–
[4], x2 = 0.3572	2.04 ± 0.033	–
[4], x2 = 0.4282	2.3 ± 0.037	–
[4], x2 = 0.4946	2.45 ± 0.04	–
[4], x2 = 0.5472	2.51 ± 0.041	–
[4], x2 = 0.5908	2.51 ± 0.041	–
[4], x2 = 0.6306	2.49 ± 0.04	–
[4], x2 = 0.6559	2.45 ± 0.039	–
[4], x2 = 0.6897	2.37 ± 0.038	–
[4], x2 = 0.7229	2.28 ± 0.037	–
[4], x2 = 0.7578	2.17 ± 0.035	–
[4], x2 = 0.7947	2.02 ± 0.033	–
[4], x2 = 0.8299	1.83 ± 0.03	–
[4], x2 = 0.8675	1.61 ± 0.026	–
[4], x2 = 0.905	1.32 ± 0.022	–
[4], x2 = 0.94	0.995 ± 0.017	–
[4], x2 = 0.9723	0.621 ± 0.011	–
